In PubChem BioAssay AID1223 (NMMLSC, 2008):
The source made the active and inactive calls.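 The calls were made as follows: active = total score of at least 50 of 100, built from tracer displacement at 10 µM, potency and curve span; inactive = total score under 50.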

Target: Estrogen receptor (Homo sapiens) (UniProt P03372)
Experiment: fluorescent estrogen displacement from ERalpha – cell-based, Cos7 ERalpha-GFP, flow cytometry, dose response (AID 1223)
Conditions: E2-Alexa633 competitive binding

Sequence of Estrogen receptor (Homo sapiens) (P03372 whole entry, looked up): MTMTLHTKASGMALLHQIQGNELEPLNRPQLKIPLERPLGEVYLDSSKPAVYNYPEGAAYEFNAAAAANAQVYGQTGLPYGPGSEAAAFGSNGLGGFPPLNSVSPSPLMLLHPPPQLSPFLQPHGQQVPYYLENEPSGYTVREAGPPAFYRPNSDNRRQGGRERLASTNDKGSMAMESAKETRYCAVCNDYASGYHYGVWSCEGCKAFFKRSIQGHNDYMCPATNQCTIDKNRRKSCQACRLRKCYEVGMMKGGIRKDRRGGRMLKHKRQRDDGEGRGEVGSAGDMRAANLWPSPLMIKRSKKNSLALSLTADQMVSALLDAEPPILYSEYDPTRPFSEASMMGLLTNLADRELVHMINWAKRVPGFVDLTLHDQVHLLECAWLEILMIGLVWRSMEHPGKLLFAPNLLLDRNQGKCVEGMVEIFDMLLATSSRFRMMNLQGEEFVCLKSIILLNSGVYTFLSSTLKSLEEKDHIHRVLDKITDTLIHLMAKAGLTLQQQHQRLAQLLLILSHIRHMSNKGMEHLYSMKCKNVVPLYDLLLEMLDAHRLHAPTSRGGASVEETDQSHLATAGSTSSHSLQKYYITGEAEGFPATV

| SMILES | fluorescent ligand binding remaining (at 10 µM (top of the series)) | other results |
| --- | --- | --- |
| Oc1ccc(-c2nc(-c3ccc(O)c(O)c3)cs2)cc1 | inactive |  |
| Cc1nn(-c2ccccc2)c(/N=C/c2ccc(O)cc2)c1-c1ccccc1 | inactive |  |
| N=C1C(c2nc3ccccc3[nH]2)=C(O)CN1c1ccc(CC(=O)O)cc1 | inactive |  |
| CCCCCCNC(=O)c1cc(-c2ccco2)nc2ccccc12 | inactive |  |
| CC(=O)Nc1ccc(OC(=O)CC2SC(=O)NC2=O)cc1 (stereo unspecified) | inactive |  |
| CC(=O)c1ccc2c(c1)C1C=CCC1C(c1ccc(S(=O)(=O)N3CCOCC3)cc1)N2 (stereo unspecified) | inactive |  |
| CCNC(=O)c1ccc2c(c1)C1C3CCC(C3)C1C(c1ccccc1)N2 (stereo unspecified) | inactive |  |
| Cc1ccc(-n2c(=O)c(C#N)cc3c(=O)n4cccc(C)c4nc32)cc1 | inactive |  |
| Cc1cc(-c2nn3c(-c4ccccc4)nnc3s2)c2ccccc2n1 | inactive |  |
| O=C1/C(=C\c2ccco2)SC(=S)N1c1ccc(O)cc1 | inactive |  |
| COc1cccc(C2Nc3c(F)cc(Br)cc3C3C=CCC32)c1OC (stereo unspecified) | inactive |  |
| O=C(O)c1ccc([N+](=O)[O-])c2c1NC(c1ccccc1)C1CC=CC21 (stereo unspecified) |  | fluorescent ligand binding remaining (at 100 µM (top of the series)): inactive |
| CCn1c(=NC(=O)c2ccc(N3C(=O)CCC3=O)cc2)sc2c(OC)ccc(OC)c21 |  | EC50: > 10 µM (inactive) |
| C[C@]12CC[C@@H]3c4ccc(O)cc4C(=O)C[C@H]3[C@@H]1CC[C@@H]2O | inactive |  |
| Cc1oc2cc(O)ccc2c(=O)c1Oc1ccccc1 | 42% |  |
| CCC(=O)Oc1ccc(/C(CC)=C(\CC)c2ccc(OC(=O)CC)cc2)cc1 | 22.8% |  |
| CCC(=O)Oc1ccc(C(CC)C(CC)c2ccc(OC(=O)CC)cc2)cc1 (stereo unspecified) | 19.9% |  |
| Nc1ncnc2c1ncn2C1CCC(CO)C(O)C1 (stereo unspecified) | inactive |  |

| SMILES | fluorescent ligand binding remaining (at 10 µM (top of the series)) | other results |
| --- | --- | --- |
| Nc1ccc(-c2nc3ccc([N+](=O)[O-])cc3[nH]2)cc1 | 63.9% |  |
| Cc1cc([N+](=O)[O-])c2c(c1C)C1C=CCC1C(c1ccccn1)N2 (stereo unspecified) | 27.9% |  |
| CCc1ccc(-c2nn(-c3ccccc3)cc2CSC(=N)N)cc1 | inactive |  |
| CCn1nnc(NC(=O)CSc2ccc(Cl)cc2)n1 | 68.5% |  |
| O=C(c1cc2ncc(Br)cn2n1)N1CCN(C(=O)c2ccco2)CC1 | inactive |  |
| Oc1ccc(-c2nc3ccc4ccccc4c3c3c2CCC3)cc1O | inactive |  |
| CCc1nc2sc3ccccc3c(=O)c2c(=O)n1Cc1ccco1 | inactive |  |
| Cc1cc(C)c2c(c1)NC(c1cc3c(cc1Br)OCO3)C1CC=CC21 (stereo unspecified) | inactive |  |
| CCCCOC(=O)c1c(C)oc2ccc(NS(=O)(=O)c3ccc4c5c(cccc35)C(=O)N4)cc12 | inactive |  |
| O=C(O)c1ccc2c(c1)C1C(Cl)C(Sc3ccccc3[N+](=O)[O-])CC1C(c1cccc([N+](=O)[O-])c1)N2 (stereo unspecified) | inactive |  |
| O=S(=O)(NCCc1csc(-c2cccnc2)n1)c1ccc(Cl)s1 | inactive |  |
| O=C(Cc1cccs1)Nc1ccc(S(=O)(=O)Nc2ncccn2)cc1 | inactive |  |
| COc1ccc(/C=N/NC(=O)c2nc(-c3ccccc3)cc(-c3ccccc3)n2)cc1O | 44.4% |  |
| Cc1ccc(C(=O)N/N=C/c2ccc([N+](=O)[O-])s2)cc1 | inactive |  |
| COc1ccc(NC(=O)C(c2ccccc2)N(C)C(=O)c2ccc(=O)[nH]c2)cc1 (stereo unspecified) | 50.7% |  |
| C/C=C(/C(=C/C)c1ccc(O)cc1)c1ccc(O)cc1 | inactive |  |
| C[C@H]1CCC[C@@H](O)CCC/C=C/c2cc(O)cc(O)c2C(=O)O1 | inactive |  |
| O=C1NC(c2ccc(Br)cc2)Nc2sc3c(c21)CCC3 (stereo unspecified) | inactive |  |
